# Assay results published in PMC9626527, “SHR2285, the first selectively oral FXIa inhibitor in China: Safety, tolerability, pharmacokinetics and pharmacodynamics combined with aspirin, clopidogrel or ticagrelor” (Frontiers in Pharmacology, 2022).
# Test: Plasma pharmacokinetics of co-administered aspirin (100 mg qd)/salicylic acid, clopidogrel (300 mg then 75 mg qd), ticagrelor (180 mg then 90 mg bid)/AR-C124910XX with SHR2285 or placebo
# Description: For group A, the dosing regimen was aspirin + clopidogrel + placebo or SHR2285 200 mg. Specifically, aspirin: 100 mg was taken orally every morning from day 1 to day 6; clopidogrel: 300 mg in the morning of the first day, 75 mg in the morning of the second day to the sixth day; placebo or SHR2285 (1:3): 200 mg orally every morning and evening until the morning of the sixth day.
# For group B, the dosing regimen was aspirin + clopidogrel + placebo or SHR2285 300 mg. The use of aspirin and clopidogrel was the same as that of group A; Placebo or SHR2285: added the amount to 300 mg based on group A.
# For group C, the administration regimen was aspirin + ticagrelor + placebo or SHR2285 300 mg. The use of aspirin, placebo or SHR2285 was the same as that in group B. Clopidogrel in group B was adjusted to ticagrelor: 180 mg orally in the morning of the first day, 90 mg in the morning and evening from the second day to the morning of the sixth day.
# PK blood collection points: the blood of each group was collected in the morning of day 1 before administration (within 1 h before administration), 4 h and 12 h after administration (before administration in the evening); in the morning of day 3, day 4, and day 5 before administration (within 1 h before administration), within 1 h before administration on the morning of the sixth day, and 0.5 h, 1 h, 1.5 h, 2 h, 2.5 h, 3 h, 4 h, 5 h, 6 h, 8 h, 10 h, 12 h, 15 h, 24 h, 36 h, and 48 h after administration. About 7 ml of venous blood was collected, and the plasma was collected for concentration determination of aspirin and its active metabolites (salicylic acid) and clopyridine (group A, group B), ticagrelor and its active metabolite AR-C124910XX (group C), SHR2285 and its active metabolite SHR164471.
# Based on the actual sampling time, the PK parameters of each component were calculated as a non-compartmental model by WinNonlin (Certara United States Inc, version 8.1). The pharmacokinetic parameters after multiple administrations were investigated: Cmax, AUCtau, AUC0-last, AUC0-inf, Tmax, t1/2, CLss/F, Vss/F, Ctrough and Caverage. The main pharmacokinetic parameters such as AUC0-last, AUC0-inf and Cmax were tabulated and summarized by descriptive statistics.
# After logarithmic conversion, the AUCss and Cmax of each component in the SHR2285 group (aspirin + clopidogrel/ticagrelor + SHR2285) and placebo group (aspirin + clopidogrel/ticagrelor + placebo) were statistically analyzed by ANOVA model. The medication group was used as the independent variable. The geometric mean ratio of the corresponding PK parameter (SHR2285/placebo group) and the estimated value of its 90% confidence interval was obtained by taking the exponential conversion from the mean difference estimated by the model (SHR2285 group-placebo group) and its 90% confidence interval. SHR2285 and its metabolite SHR164471, aspirin/salicylic acid, clopidogrel, ticagrelor and its metabolite AR-C124910XX were determined by Frontage Laboratories Co., Ltd. (Shanghai, China) using high-performance liquid chromatography-tandem mass spectrometry (HPLC-MS, Sciex API 4000). The chromatographic column is WATERS CORTECS®T3 (50 mm × 4.6 mm, id 2.7 μm), column temperature is set at 40°C. Mobile phase A is ultrapure water (containing 0.1% formic acid), and mobile phase B is acetonitrile/water (90:10, containing 0.1% formic acid). The elution gradient is: 0–0.4 min, A-B (50:50), 0.4–0.8 min, A-B (5:95), 0.8–2 min, A-B (5:95), 2–2.4 (50:50), 2.4–3.5 min, A-B (50:50). The total time was 3.5 min and the flow rate was 1.0 ml/min. The ion source was ESI source at positive ion mode. The heating capillary temperature was 400°C; CAD was nine; curtain gas was 30; GS1 (N2) was 50; GS2 (N2) was 50; The method used was multiple reaction monitoring (MRM), and the ion reactions used for quantitative analysis were m/z 545.1→408.0 (SHR2285) and m/z 721.2→408.1 (SHR164471), respectively.
# [1] = Placebo (C) n=8: aspirin + ticagrelor + placebo, day 6
# [2] = SHR2285 (C) n=12: aspirin + ticagrelor + SHR2285 300 mg bid, day 6
structure (smiles),measurement,setting,value
CCCSc1nc(N[C@@H]2C[C@H]2c2ccc(F)c(F)c2)c2nnn([C@@H]3C[C@H](O)[C@@H](O)[C@H]3O)c2n1 [AR-C124910XX],AUCtau,[1],2490(38.3) h*ng/mL
same,Cmax,[1],389(35.4) ng/ml
same,Tmax,"Placebo (C) n=8: aspirin + ticagrelor + placebo, day 6, median (range)",1.5(1.0-2.5) h
same,AUCtau,[2],2280(26.4) h*ng/mL
same,Cmax,[2],367(28.1) ng/ml
same,Tmax,"SHR2285 (C) n=12: aspirin + ticagrelor + SHR2285 300 mg bid, day 6, median (range)",1.75(1.5-2.5) h
same,steady state in plasma,"group C, six days after administration of ticagrelor",reached a steady state
same,Tmax,"range across SHR2285 and placebo groups, day 6",1.5 to 1.75 h
"COC(=O)[C@H](c1ccccc1Cl)N1CCc2sccc2C1 [Clopidogrel, clopidogrel]",Tmax,"human, in vivo",one to 1.5
"CCCSc1nc(N[C@@H]2C[C@H]2c2ccc(F)c(F)c2)c2nnn([C@@H]3C[C@H](OCCO)[C@@H](O)[C@H]3O)c2n1 [Ticagrelor, ticagrelor]",GLSMR of AUCtau (SHR2285 group/placebo group),"human, in vivo",0.929
same,GLSMR of Cmax (SHR2285 group/placebo group),"human, in vivo",1.06
same,Tmax,"human, in vivo, Tmax",1.5 to 1.75 h
same,steady state in plasma,in vivo,reached a steady state
